Active and inactive are the calls of the source. The rule behind the calls is not given here.
Tested on: CCRIS mutagenicity, Ames/micronucleus/aberration tests
Assay: CCRIS mutagenicity studies
[1] = Test System: AMES SALMONELLA TYPHIMURIUM, Strain/Indicator: TA98, Metabolic Activation: NONE, Method: PREINCUBATION
[2] = Test System: AMES SALMONELLA TYPHIMURIUM, Strain/Indicator: TA100, Metabolic Activation: NONE, Method: PREINCUBATION
[3] = Test System: AMES SALMONELLA TYPHIMURIUM, Strain/Indicator: TA100, Metabolic Activation: NONE, Method: STANDARD PLATE

For `O=C1C=Cc2c(ccc3ccccc23)C1=O`, the mutagenic call (Test System: AMES SALMONELLA TYPHIMURIUM, Strain/Indicator: TA97A, Metabolic Activation: NONE, Method: PREINCUBATION) was “inactive; negative”, the mutagenic call [1] was “inactive; negative” and the mutagenic call [2] was “inactive; negative”. The mutagenic call (Test System: AMES SALMONELLA TYPHIMURIUM, Strain/Indicator: TA102, Metabolic Activation: NONE, Method: PREINCUBATION) was “inactive; negative” and the mutagenic call (Test System: AMES SALMONELLA TYPHIMURIUM, Strain/Indicator: TA104, Metabolic Activation: NONE, Method: PREINCUBATION) was “active; positive”.

`Cc1ccc(N=[N+]([O-])c2ccc(C)c(N)c2)cc1N` was tested, and the mutagenic call [1] was “inactive; negative”, the mutagenic call (Test System: AMES SALMONELLA TYPHIMURIUM, Strain/Indicator: TA98, Metabolic Activation: NONE, Method: SUSPENSION/PLATE) was “inactive; negative” and the mutagenic call (Test System: AMES SALMONELLA TYPHIMURIUM, Strain/Indicator: TA98, Metabolic Activation: RAT, LIVER, S-9, PCB, Method: PREINCUBATION) was “active; positive”. For the same compound, the mutagenic call (Test System: AMES SALMONELLA TYPHIMURIUM, Strain/Indicator: TA98, Metabolic Activation: RAT, LIVER, S-9, PHENOBARBITAL AND 5,6-BENZOFLAVONE, Method: SUSPENSION/PLATE) was “active; positive”, the mutagenic call (Test System: AMES SALMONELLA TYPHIMURIUM, Strain/Indicator: TA100, Metabolic Activation: NONE, Method: SUSPENSION/PLATE) was “inactive; negative” and the mutagenic call (Test System: AMES SALMONELLA TYPHIMURIUM, Strain/Indicator: TA100, Metabolic Activation: RAT, LIVER, S-9, PHENOBARBITAL AND 5,6-BENZOFLAVONE, Method: SUSPENSION/PLATE) was “inactive; negative”.

For `O=c1c(O)c(-c2ccc(O)c(O)c2)oc2cc(O)ccc12`, the mutagenic call (End Point: IN VITRO CHROMOSOMAL ABERRATIONS, Test System: HUMAN HL60 CELLS, Metabolic Activation: NONE) was “active; positive (structural changes)”, the mutagenic call (End Point: IN VITRO CHROMOSOMAL ABERRATIONS, Test System: HUMAN TK6 CELLS, Metabolic Activation: NONE) was “active; positive (structural changes)” and the mutagenic call (End Point: IN VITRO MICRONUCLEUS, Test System: HUMAN HL60 CELLS, Metabolic Activation: NONE) was “active; positive”. For the same compound, the mutagenic call (End Point: IN VITRO MICRONUCLEUS, Test System: HUMAN TK6 CELLS, Metabolic Activation: NONE) was “active; positive”, the mutagenic call (Test System: Ames Salmonella typhimurium, Strain/Indicator: TA102, Metabolic Activation: None, Method: Preincubation) was “inactive; negative” and the mutagenic call (Test System: Ames Salmonella typhimurium, Strain/Indicator: TA102, Metabolic Activation: Rat, Liver, S-9, Aroclor 1254 in 0.154 M KCl, Method: Preincubation) was “inactive; negative”.

With `ClC[C@H]1CO1` the mutagenic call [2] was “active; positive”, the mutagenic call [3] was “active; positive” and the mutagenic call (Test System: AMES SALMONELLA TYPHIMURIUM, Strain/Indicator: TA100, Metabolic Activation: RAT, LIVER, S-9, PCB, Method: PREINCUBATION) was “active; positive”.

`CC(C)COC(=O)c1ccccc1N` was tested, and the mutagenic call (Test System: AMES SALMONELLA TYPHIMURIUM, Strain/Indicator: TA98, Metabolic Activation: HAMSTER, LIVER, S-9, AROCLOR 1254 (10%), Method: PREINCUBATION) was “inactive; negative”, the mutagenic call [1] was “inactive; negative” and the mutagenic call (Test System: AMES SALMONELLA TYPHIMURIUM, Strain/Indicator: TA98, Metabolic Activation: RAT, LIVER, S-9, AROCLOR 1254 (10%), Method: PREINCUBATION) was “inactive; negative”. The mutagenic call (Test System: AMES SALMONELLA TYPHIMURIUM, Strain/Indicator: TA100, Metabolic Activation: HAMSTER, LIVER, S-9, AROCLOR 1254 (10%), Method: PREINCUBATION) was “inactive; negative”, the mutagenic call [2] was “inactive; negative” and the mutagenic call (Test System: AMES SALMONELLA TYPHIMURIUM, Strain/Indicator: TA100, Metabolic Activation: RAT, LIVER, S-9, AROCLOR 1254 (10%), Method: PREINCUBATION) was “inactive; negative”. The mutagenic call (Test System: AMES SALMONELLA TYPHIMURIUM, Strain/Indicator: TA1535, Metabolic Activation: HAMSTER, LIVER, S-9, AROCLOR 1254 (10%), Method: PREINCUBATION) was “inactive; negative”, the mutagenic call (Test System: AMES SALMONELLA TYPHIMURIUM, Strain/Indicator: TA1535, Metabolic Activation: NONE, Method: PREINCUBATION) was “inactive; negative” and the mutagenic call (Test System: AMES SALMONELLA TYPHIMURIUM, Strain/Indicator: TA1535, Metabolic Activation: RAT, LIVER, S-9, AROCLOR 1254 (10%), Method: PREINCUBATION) was “inactive; negative”. The mutagenic call (Test System: AMES SALMONELLA TYPHIMURIUM, Strain/Indicator: TA1537, Metabolic Activation: HAMSTER, LIVER, S-9, AROCLOR 1254 (10%), Method: PREINCUBATION) was “inactive; negative”, the mutagenic call (Test System: AMES SALMONELLA TYPHIMURIUM, Strain/Indicator: TA1537, Metabolic Activation: NONE, Method: PREINCUBATION) was “inactive; negative” and the mutagenic call (Test System: AMES SALMONELLA TYPHIMURIUM, Strain/Indicator: TA1537, Metabolic Activation: RAT, LIVER, S-9, AROCLOR 1254 (10%), Method: PREINCUBATION) was “inactive; negative”.

In the case of `CNC(=O)c1c(N(C)N=O)ncn1C`, the mutagenic call (Test System: AMES SALMONELLA TYPHIMURIUM, Strain/Indicator: TA98, Metabolic Activation: NONE, Method: STANDARD PLATE) is reported as “inactive; negative”, the mutagenic call (Test System: AMES SALMONELLA TYPHIMURIUM, Strain/Indicator: TA98, Metabolic Activation: S-9, Method: PREINCUBATION) is reported as “inactive; negative” and the mutagenic call (Test System: AMES SALMONELLA TYPHIMURIUM, Strain/Indicator: TA98, Metabolic Activation: S-9, Method: STANDARD PLATE) is reported as “inactive; negative”. For the same compound, the mutagenic call [3] was “inactive; negative”, the mutagenic call (Test System: AMES SALMONELLA TYPHIMURIUM, Strain/Indicator: TA100, Metabolic Activation: S-9, Method: PREINCUBATION) was “inactive; negative” and the mutagenic call (Test System: AMES SALMONELLA TYPHIMURIUM, Strain/Indicator: TA100, Metabolic Activation: S-9, Method: STANDARD PLATE) was “inactive; negative”. For the same compound, the mutagenic call (Test System: AMES SALMONELLA TYPHIMURIUM, Strain/Indicator: TA102, Metabolic Activation: NONE, Method: STANDARD PLATE) was “inactive; negative”, the mutagenic call (Test System: AMES SALMONELLA TYPHIMURIUM, Strain/Indicator: TA102, Metabolic Activation: S-9, Method: PREINCUBATION) was “inactive; negative” and the mutagenic call (Test System: AMES SALMONELLA TYPHIMURIUM, Strain/Indicator: TA102, Metabolic Activation: S-9, Method: STANDARD PLATE) was “inactive; negative”. The mutagenic call (Test System: AMES SALMONELLA TYPHIMURIUM, Strain/Indicator: TA1535, Metabolic Activation: NONE, Method: STANDARD PLATE) was “inactive; negative”, the mutagenic call (Test System: AMES SALMONELLA TYPHIMURIUM, Strain/Indicator: TA1535, Metabolic Activation: S-9, Method: PREINCUBATION) was “inactive; negative” and the mutagenic call (Test System: AMES SALMONELLA TYPHIMURIUM, Strain/Indicator: TA1535, Metabolic Activation: S-9, Method: STANDARD PLATE) was “inactive; negative”. The mutagenic call (Test System: AMES SALMONELLA TYPHIMURIUM, Strain/Indicator: TA1537, Metabolic Activation: NONE, Method: STANDARD PLATE) was “inactive; negative”, the mutagenic call (Test System: AMES SALMONELLA TYPHIMURIUM, Strain/Indicator: TA1537, Metabolic Activation: S-9, Method: PREINCUBATION) was “inactive; negative” and the mutagenic call (Test System: AMES SALMONELLA TYPHIMURIUM, Strain/Indicator: TA1537, Metabolic Activation: S-9, Method: STANDARD PLATE) was “inactive; negative”.

— PubChem BioAssay AID1259407 (Chemical Carcinogenesis Research Information System (CCRIS), 2018)
